Test results reported in patent publication US11945806B2, “Stabilization of amyloidogenic immunoglobulin light chains” (The Scripps Research Institute, priority 2019, dated 2024).

target: WIL-FL (Homo sapiens, UniProt P01721); experiment: Unlabeled LC Protease Sensitivity Assay (proteinase K); assay type: biochemical; conditions: small molecule 10 μM, WIL-FL 5 μM, proteinase K 50 nM, 2 hours at 37° C.
Description: Unlabeled LC Protease Sensitivity Assay. WIL-FL (5 μM) in phosphate-buffered saline (PBS, pH 7.4)+0.02% Pluronic F-127 was incubated with proteinase K (50 nM) with small molecule (10 μM) in 1% DMSO vehicle, or vehicle alone. After 2 hours at 37° C., reactions were quenched with 2 mM phenylmethyl sulfonyl fluoride in methanol and centrifuged at 14,000 rpm for 2 minutes. Remaining WIL-FL was quantified by injecting 10 μL of the supernatant into a Waters Acquity H-Class Bio-UPLC (ultra performance liquid chromatography) instrument equipped with a BEH200 analytical size-exclusion column (1.7 μm, 4.6×150 mm) under isocratic conditions (0.2 mL/min, PBS+1 mM EDTA, 2400 psi backpressure, 15 min), monitoring absorbance at 280 nm. Activity of each compound is given as fold protection from protease=(A_compound−A_vehicle)/(A_no_protease−A_vehicle), where each “A” corresponds to peak integration of the respective treatment.

| Compound | Protection (fold protection of LC from protease) |
| --- | --- |
| CC(C)CC1NC(=O)N(CC(=O)Nc2ccc(C(F)(F)F)cc2)C1=O (single isomer, unassigned) [Compound 22] | A (A < 0.3)) |
| CC(C)CC1NC(=O)N(CC(=O)Nc2ccc(C(F)(F)F)cc2)C1=O (single isomer, unassigned) [Compound 23] | A (A < 0.3)) |
| CCN(CC)c1ccc2c(C(F)(F)F)cc(=O)oc2c1 [Compound 24] | A (A < 0.3)) |
| CCN(CC)c1ccc2c(C)cc(=O)[nH]c2c1 [Compound 25, 7-(diethylamino)-4-methylquinolin-2(1H)-one] | A (A < 0.3)) |
| CCN(CC)c1ccc2cc(C#N)c(=N)oc2c1 [Compound 26, 7-(diethylamino)-2-imino-2H-chromene-3-carbonitrile] | A (A < 0.3)) |
| CCN(CC)c1ccc2c(O)cc(=O)oc2c1 [Compound 27, 7-(diethylamino)-4-hydroxy-2H-chromen-2-one] | A (A < 0.3)) |
| Cc1cc(=O)oc2cc(NCc3ccccc3)ccc12 [Compound 28, 7-(benzylamino)-4-methyl-2H-chromen-2-one] | A (A < 0.3)) |
| Cc1cc(=O)oc2cc(NCc3ccoc3)ccc12 [Compound 29, 7-((furan-3-ylmethyl)amino)-4-methyl-2H-chromen-2-one] | A (A < 0.3)) |
| Cc1cc(=O)oc2cc(NCCCc3ccccc3)ccc12 [Compound 30, 4-methyl-7-((3-phenylpropyl)amino)-2H-chromen-2-one] | A (A < 0.3)) |
| CCN(CCCc1ccccc1)c1ccc2c(C)cc(=O)oc2c1 [Compound 31, 7-(ethyl(3-phenylpropyl)amino)-4-methyl-2H-chromen-2-one] | A (A < 0.3)) |
| CCC(C)Oc1ccc2c(C)cc(=O)oc2c1 (stereo not drawn) [Compound 32, 7-(sec-butoxy)-4-methyl-2H-chromen-2-one] | A (A < 0.3)) |
| CCCOc1ccc2c(C)cc(=O)oc2c1 [Compound 33, 4-methyl-7-propoxy-2H-chromen-2-one] | A (A < 0.3)) |
| Cc1cc(=O)oc2cc(OCCN)ccc12 [Compound 34, 7-(2-aminoethoxy)-4-methyl-2H-chromen-2-one] | A (A < 0.3)) |
| CCN(Cc1ccccc1)c1ccc2c(C)cc(=O)oc2c1 [Compound 35, 7-(benzyl(ethyl)amino)-4-methyl-2H-chromen-2-one] | A (A < 0.3)) |
| Cc1cc(=O)oc2cc(N3CCCC3)ccc12 [Compound 36, 4-methyl-7-(pyrrolidin-1-yl)-2H-chromen-2-one] | A (A < 0.3)) |
| CCN(CCc1ccccc1)c1ccc2c(C)cc(=O)oc2c1 [Compound 37, 7-(ethyl(phenethyl)amino)-4-methyl-2H-chromen-2-one] | A (A < 0.3)) |
| Cc1cc(=O)oc2cc(NC(C)c3ccccc3)ccc12 (stereo not drawn) [Compound 39, 4-methyl-7-((1-phenylethyl)amino)-2H-chromen-2-one] | A (A < 0.3)) |
| Cc1cc(=O)oc2cc(NCCc3ccccc3)ccc12 [Compound 40, 4-methyl-7-(phenethylamino)-2H-chromen-2-one] | A (A < 0.3)) |
| CCC(Oc1ccc2c(C)cc(=O)oc2c1)c1ccccc1 (stereo not drawn) [Compound 41, 4-methyl-7-(1-phenylpropoxy)-2H-chromen-2-one] | A (A < 0.3)) |
| Cc1cc(=O)oc2cc(OC(c3ccccc3)c3ccccc3)ccc12 [Compound 42, 7-(benzhydryloxy)-4-methyl-2H-chromen-2-one] | A (A < 0.3)) |
| Cc1cc(=O)oc2cc(OCC(C)c3ccccc3)ccc12 (stereo not drawn) [Compound 43, 4-methyl-7-(2-phenylpropoxy)-2H-chromen-2-one] | B (3 ≤ B < 0.6) |
| Cc1cc(=O)oc2cc(OC(C)c3ccc(F)cc3)ccc12 (stereo not drawn) [Compound 44, 7-(1-(4-fluorophenyl)ethoxy)-4-methyl-2H-chromen-2-one] | A (A < 0.3)) |
| Cc1ccccc1C(C)Oc1ccc2c(C)cc(=O)oc2c1 (stereo not drawn) [Compound 45, 4-methyl-7-(1-(o-tolyl)ethoxy)-2H-chromen-2-one] | A (A < 0.3)) |

| Compound | Protection (fold protection of LC from protease) |
| --- | --- |
| Cc1cc(=O)oc2cc(OCCC(C)c3ccccc3)ccc12 (stereo not drawn) [Compound 46, 4-methyl-7-(3-phenylbutoxy)-2H-chromen-2-one] | A (A < 0.3)) |
| Cc1cc(=O)oc2cc(OC(C)Cc3ccccc3)ccc12 (stereo not drawn) [Compound 47, 4-methyl-7-((1-phenylpropan-2-yl)oxy)-2H-chromen-2-one] | A (A < 0.3)) |
| Cc1cc(=O)oc2cc(N3CCCCC3)ccc12 [Compound 48, 4-methyl-7-(piperidin-1-yl)-2H-chromen-2-one] | A (A < 0.3)) |
| Cc1cc(=O)oc2cc(OC(C)c3ccccc3F)ccc12 (stereo not drawn) [Compound 49, 7-(1-(2-fluorophenyl)ethoxy)-4-methyl-2H-chromen-2-one] | A (A < 0.3)) |
| Cc1cc(=O)oc2cc(OC(C)c3c(F)cccc3F)ccc12 (stereo not drawn) [Compound 51, 7-(1-(2,6-difluorophenyl)ethoxy)-4-methyl-2H-chromen-2-one] | A (A < 0.3)) |
| CCN(CC)c1ccc2c(C)cc(=O)n(C)c2c1 [Compound 52, 7-(diethylamino)-1,4-dimethylquinolin-2(1H)-one] | A (A < 0.3)) |
| CCN(CC)c1ccc2c(C)c(CCO)c(=O)oc2c1 [Compound 53, 7-(diethylamino)-3-(2-hydroxyethyl)-4-methyl-2H-chromen-2-one] | A (A < 0.3)) |
| CCN(CC)c1ccc2c(C)c(CC(=O)O)c(=O)oc2c1 [Compound 54, 2-(7-(diethylamino)-4-methyl-2-oxo-2H-chromen-3-yl)acetic acid] | A (A < 0.3)) |
| CCN(CC)c1ccc2c(C)c(CC(=O)NCCc3ccccc3)c(=O)oc2c1 [Compound 55, 2-(7-(diethylamino)-4-methyl-2-oxo-2H-chromen-3-yl)-N-phenethylacetamide] | A (A < 0.3)) |
| CCN(CC)c1ccc2c(C)c(CC(=O)NCCCc3ccccc3)c(=O)oc2c1 [Compound 56, 2-(7-(diethylamino)-4-methyl-2-oxo-2H-chromen-3-yl)-N-(3-phenylpropyl)acetamide] | A (A < 0.3)) |
| CCN(CC)c1ccc2c(C)c(CC(=O)NCCCCc3ccccc3)c(=O)oc2c1 [Compound 57, 2-(7-(diethylamino)-4-methyl-2-oxo-2H-chromen-3-yl)-N-(4-phenylbutyl)acetamide] | A (A < 0.3)) |
| CCN(CC)c1ccc2c(C)c(CC(=O)NCCN(C)C)c(=O)oc2c1 [Compound 58, 2-(7-(diethylamino)-4-methyl-2-oxo-2H-chromen-3-yl)-N-(2-(dimethylamino)ethyl)acetamide] | A (A < 0.3)) |
| CCN(CC)c1ccc2c(C)c(CC(=O)NCCCN(C)C)c(=O)oc2c1 [Compound 59, 2-(7-(diethylamino)-4-methyl-2-oxo-2H-chromen-3-yl)-N-(3-(dimethylamino)propyl)acetamide] | A (A < 0.3)) |
| CCN(CC)c1ccc2c(C)c(CC(=O)NC)c(=O)oc2c1 [Compound 60, 2-(7-(diethylamino)-4-methyl-2-oxo-2H-chromen-3-yl)-N-methylacetamide] | A (A < 0.3)) |
| CCN(CC)c1ccc2c(C)c(CC(=O)N(C)C)c(=O)oc2c1 [Compound 61, 2-(7-(diethylamino)-4-methyl-2-oxo-2H-chromen-3-yl)-N,N-dimethylacetamide] | A (A < 0.3)) |
| CCN(CC)c1ccc2c(C)c(CCC(=O)O)c(=O)oc2c1 [Compound 62, 3-(7-(diethylamino)-4-methyl-2-oxo-2H-chromen-3-yl)propanoic acid] | A (A < 0.3)) |
| CCN(CC)c1ccc2c(C)c(CCC(=O)NCCc3ccccc3)c(=O)oc2c1 [Compound 64, 3-(7-(diethylamino)-4-methyl-2-oxo-2H-chromen-3-yl)-N-phenethylpropanamide] | A (A < 0.3)) |
| CCN(CC)c1ccc2c(C)c(CCC(=O)NC)c(=O)oc2c1 [Compound 66, 3-(7-(diethylamino)-4-methyl-2-oxo-2H-chromen-3-yl)-N-methylpropanamide] | A (A < 0.3)) |
| CCN(CC)c1ccc2c(C)c(CCC(=O)NCCCN(C)C)c(=O)oc2c1 [Compound 68] | A (A < 0.3)) |
| CCN(CC)c1ccc2c(C)c(CCNC(=O)OC(C)(C)C)c(=O)oc2c1 [Compound 69, Tert-butyl (2-(7-(diethylamino)-4-methyl-2-oxo-2H-chromen-3-yl)ethyl)carbamate] | A (A < 0.3)) |
| CCN(CC)c1ccc2c(C)c(CCNC(=O)CCc3ccccc3)c(=O)oc2c1 [Compound 70, N-(2-(7-(diethylamino)-4-methyl-2-oxo-2H-chromen-3-yl)ethyl)-3-phenylpropanamide] | A (A < 0.3)) |
| CCN(CC)c1ccc2c(C)c(CCC(=O)NCCc3ccccc3F)c(=O)oc2c1 [Compound 71] | A (A < 0.3)) |
